Test system: Meloidogyne incognita
Assay: Meloidogyne incognita test (sand, lettuce, gall formation)
Type: in vivo
Details: Meloidogyne incognita, 336 h, 4 ppm, after 14 days; read-out: nematicidal efficacy (formation of galls)
Description: Meloidogyne incognita Test [table] To produce a suitable active compound preparation, 1 part by weight of active compound is mixed with the stated amount of solvent and the concentrate is diluted to the desired concentration with water. Vessels are filled with sand, active compound solution, an egg/larvae suspension of the southern root-knot nematode (Meloidogyne incognita) and lettuce seeds. The lettuce seeds germinate and the plants develop. The galls develop on the roots. After 14 days, the nematicidal efficacy in % is determined by the formation of galls. 100% means that no galls were found; 0% means that the number of galls on the treated plants corresponds to the untreated control.

In order of rising pest or weed control at 4 ppm:
1. Cn1nc(C(=O)NS(=O)(=O)c2c(Cl)cccc2Cl)cc1-c1c(F)cccc1F [I-145]  90%
2. O=C(NS(=O)(=O)c1c(Cl)cccc1Cl)c1cn(Cc2ccc(Cl)cc2)cn1 [I-149]  90%

Same assay, conditions: Meloidogyne incognita, 336 h, 20 ppm, after 14 days; read-out: nematicidal efficacy (formation of galls)

In order of rising pest or weed control at 20 ppm:
1. O=C(NS(=O)(=O)c1c(Cl)cccc1Cl)c1ncn(CC(F)(F)C(F)(F)F)c1Cl [I-099]  70%
2. Cn1nc(C(=O)NS(C)(=O)=O)cc1-c1ncccc1Cl [I-128]  70%
3. Cn1nc(C(=O)NS(=O)(=O)c2cc(Cl)ccc2Cl)cc1-c1ccccc1 [I-133]  70%
4. Cn1nc(C(=O)NS(=O)(=O)c2c(Cl)cccc2Cl)cc1-c1c(F)cccc1F [I-145]  70%
5. COc1ccc(Cl)c(S(=O)(=O)NC(=O)c2ncn(CC(F)(F)C(F)(F)F)c2Cl)c1 [I-098]  90%
6. COc1ccc(Cl)c(S(=O)(=O)NC(=O)c2ncn(C(C)CC(F)(F)F)c2Cl)c1 (centres unmarked) [I-100]  90%
7. O=C(NS(=O)(=O)c1cc(C(F)(F)F)ccc1Cl)c1ncn(C2CC2C(F)(F)F)c1Cl (centres unmarked) [I-105]  90%
8. CC(C)S(=O)(=O)NC(=O)c1cn(C)c(Cc2ccccc2Cl)n1 [I-117]  90%
9. Cn1cc(C(=O)NS(=O)(=O)c2ccccc2Cl)nc1Cc1cccc(Cl)c1 [I-119]  90%
10. O=C(NS(=O)(=O)c1cc(Cl)ccc1Cl)c1nc(Cl)n(CCC(F)(F)F)c1Cl [I-123]  90%
11. COc1ccc(Cl)c(S(=O)(=O)NC(=O)c2cc(-c3cccc(Cl)c3)n(C)n2)c1 [I-129]  90%
12. COc1ccc(Cl)c(S(=O)(=O)NC(=O)c2cc(-c3ccccc3Cl)n(C)n2)c1 [I-130]  90%
13. Cn1nc(C(=O)NS(=O)(=O)c2cc(Cl)ccc2Cl)cc1-c1ccc(Cl)cc1 [I-131]  90%
14. Cn1nc(C(=O)NS(=O)(=O)c2cc(Cl)ccc2Cl)cc1-c1cccc(Cl)c1 [I-132]  90%
15. Cn1nc(C(=O)NS(=O)(=O)c2cc(Cl)ccc2Cl)cc1-c1cccc(C(F)(F)F)c1 [I-135]  90%
16. Cn1nc(C(=O)NS(=O)(=O)c2cc(Cl)ccc2Cl)cc1-c1c(F)cccc1F [I-143]  90%
17. COc1ccc(Cl)c(S(=O)(=O)NC(=O)c2cc(-c3c(F)cccc3F)n(C)n2)c1 [I-144]  90%
18. O=C(NS(=O)(=O)c1cc(Cl)ccc1Cl)c1cn(Cc2ccc(Cl)cc2)cn1 [I-154]  90%
19. O=C(NS(=O)(=O)c1c(Cl)cccc1Cl)c1cn(Cc2ccccc2Cl)cn1 [I-157]  90%
20. Cc1nc(C(=O)NS(=O)(=O)c2ccccc2Cl)cn1Cc1ccccc1Cl [I-163]  90%
21. O=C(NS(=O)(=O)c1cccc(Cl)c1)c1cn(Cc2ccc(Cl)cc2)cn1 [I-164]  90%
22. O=C(NS(=O)(=O)c1ccccc1)c1cn(Cc2cc(Cl)cc(Cl)c2)cn1 [I-167]  90%
23. Cc1nc(C(=O)NS(=O)(=O)c2c(Cl)cccc2Cl)cn1Cc1cccc(Cl)c1 [I-169]  90%
24. CC(CC(F)(F)F)n1cnc(C(=O)NS(=O)(=O)c2c(Cl)cccc2Cl)c1Cl (centres unmarked) [I-101]  100%
25. CC(CC(F)(F)F)n1cnc(C(=O)NS(=O)(=O)c2ccccc2C(F)(F)F)c1Cl (centres unmarked) [I-102]  100%
26. COc1ccc(Cl)c(S(=O)(=O)NC(=O)c2ncn(C3CC3C(F)(F)F)c2Cl)c1 (centres unmarked) [I-103]  100%
27. CC(C)Oc1ccc(Cl)c(S(=O)(=O)NC(=O)c2ncn(C3CC3C(F)(F)F)c2Cl)c1 (centres unmarked) [I-104]  100%
28. COc1ccc(Cl)c(S(=O)(=O)NC(=O)c2nc(Br)n(CCC(F)(F)F)c2Br)c1 [I-108]  100%
29. COc1ccc(Cl)c(S(=O)(=O)NC(=O)c2nc(C)n(-c3cc(Cl)cc(Cl)c3)c2Br)c1 [I-109]  100%
30. COc1ccc(Cl)c(S(=O)(=O)NC(=O)c2nc(C)n(-c3cc(Cl)cc(Cl)c3)c2I)c1 [I-110]  100%
31. Cc1nc(C(=O)NS(=O)(=O)c2ccccc2Cl)c(Cl)n1-c1cc(Cl)cc(Cl)c1 [I-111]  100%
32. Cc1ccccc1S(=O)(=O)NC(=O)c1nc(C)n(-c2cc(Cl)cc(Cl)c2)c1Cl [I-112]  100%
33. O=C(NS(=O)(=O)c1ccccc1Cl)c1nc(Cl)n(-c2cc(Cl)cc(Cl)c2)c1Cl [I-114]  100%
34. Cc1ccccc1S(=O)(=O)NC(=O)c1nc(Cl)n(-c2cc(Cl)cc(Cl)c2)c1Cl [I-115]  100%
35. O=C(NS(=O)(=O)c1ccccc1Cl)c1nc(Cl)n(CCC(F)(F)F)c1Cl [I-124]  100%
36. COc1ccc(S(=O)(=O)NC(=O)c2nc(Cl)n(CCC(F)(F)F)c2Cl)cc1 [I-125]  100%
37. Cn1nc(C(=O)NS(C)(=O)=O)cc1-c1cccc(Cl)n1 [I-126]  100%
38. Cn1nc(C(=O)NS(=O)(=O)c2cc(Cl)ccc2Cl)cc1-c1cc(Cl)cc(Cl)c1 [I-134]  100%
39. Cn1nc(C(=O)NS(=O)(=O)c2cc(Cl)ccc2Cl)cc1-c1ncc(C(F)(F)F)cc1Cl [I-136]  100%
40. COc1ccc(Cl)c(S(=O)(=O)NC(=O)c2cc(-c3cccc(C(F)(F)F)c3)n(C)n2)c1 [I-138]  100%
41. COc1ccc(Cl)c(S(=O)(=O)NC(=O)c2cc(-c3ncc(C(F)(F)F)cc3Cl)n(C)n2)c1 [I-139]  100%
42. Cn1nc(C(=O)NS(=O)(=O)c2cc(Cl)ccc2Cl)cc1-c1cc(F)cc(C(F)(F)F)c1 [I-140]  100%
43. Cn1nc(C(=O)NS(=O)(=O)c2ccccc2Cl)cc1-c1c(F)cccc1F [I-142]  100%
44. Cn1nc(C(=O)NS(=O)(=O)c2c(F)cccc2F)cc1-c1c(F)cccc1F [I-146]  100%
45. O=C(NS(=O)(=O)c1ccc(Cl)cc1Cl)c1cn(Cc2ccc(Cl)cc2)cn1 [I-148]  100%
46. O=C(NS(=O)(=O)c1ccc(Cl)cc1)c1cn(Cc2ccccc2)cn1 [I-150]  100%
47. O=C(NS(=O)(=O)c1ccccc1)c1cn(Cc2ccc(Cl)cc2)cn1 [I-151]  100%
48. O=C(NS(=O)(=O)c1ccccc1)c1cn(Cc2ccccc2)cn1 [I-152]  100%
49. O=C(NS(=O)(=O)c1cc(Cl)ccc1Cl)c1cn(Cc2ccccc2)cn1 [I-153]  100%
50. O=C(NS(=O)(=O)c1ccccc1)c1cn(Cc2ccccc2Cl)cn1 [I-155]  100%
51. O=C(NS(=O)(=O)c1ccccc1Cl)c1cn(Cc2cccc(Cl)c2)cn1 [I-159]  100%
52. O=C(NS(=O)(=O)c1c(Cl)cccc1Cl)c1cn(Cc2cccc(C(F)(F)F)c2)cn1 [I-161]  100%
53. O=C(NS(=O)(=O)c1ccccc1Cl)c1cn(Cc2cccc(C(F)(F)F)c2)cn1 [I-162]  100%
54. O=C(NS(=O)(=O)c1ccccc1Cl)c1cn(Cc2cc(Cl)cc(Cl)c2)cn1 [I-165]  100%
55. O=C(NS(=O)(=O)c1c(Cl)cccc1Cl)c1cn(Cc2cc(Cl)cc(Cl)c2)cn1 [I-166]  100%
56. Cc1nc(C(=O)NS(=O)(=O)c2ccccc2Cl)cn1Cc1cccc(Cl)c1 [I-168]  100%
57. O=C(NS(=O)(=O)c1ccccc1Cl)c1cn(-c2cccc(Cl)c2)cn1 [I-174]  100%
